Reference: article PMC9680032, “Conformationally Locked Carbocyclic Nucleosides Built on a 4′-Hydroxymethyl-3′-hydroxybicyclo[4.1.0]heptane Template. Stereoselective Synthesis and Antiviral Activity” (The Journal of Organic Chemistry, 2022)
≈ marks a conversion by molar mass, not a printed value.

B1: UDA: reference agent against Human Coronavirus (229E) in Table S1 (protein, UniProt P11218 24-372, looked up)
Lectin/endochitinase 1: QRCGSQGGGGTCPALWCCSIWGWCGDSEPYCGRTCENKCWSGERSDHRCGAAVGNPPCGQDRCCSVHGWCGGGNDYCSGSKCQYRCSSSVRGPRVALSGNSTANSIGNVVVTEPLFDQMFSHRKDCPSQGFYSYHSFLVAAESFPAFGTIGDVATRKREVAAFLAHISQATSGERSDVENPHAWGLCHINTTTVTENDFCTSSDWPCAAGKKYSPRGPIQLTHNFNYGLAGQAIGEDLIQNPDLVEKDPIISFKTALWFWMSQHDNKPSCHDIVLNANSAANRIPNKGVIGNIISRAFGHDDFAVRSSSIGFYKRYCDMLGVSYGHDLKYWFDNTPSSEFQRIQMRVAA

Key:
[1] = system: Herpes simplex virus-1 (KOS); assay: microbe, parasite or virus in culture; type: cell-based; conditions: Human alphaherpesvirus 1, HEL, read-out: Antiviral EC50 Herpes simplex virus-1 (KOS)
[2] = system: Herpes simplex virus-2 (G); assay: microbe, parasite or virus in culture; type: cell-based; conditions: Human alphaherpesvirus 2, HEL, read-out: Antiviral EC50 Herpes simplex virus-2 (G)
Vaccinia virus = assay: microbe, parasite or virus in culture; type: cell-based; conditions: Orthopoxvirus vaccinia, HEL, read-out: Antiviral EC50 Vaccinia virus
Adeno virus-2 = assay: organism not typed; type: cell-based; conditions: HEL, read-out: Antiviral EC50 Adeno virus-2
Human Coronavirus (229E) = assay: microbe, parasite or virus in culture; type: cell-based; conditions: for EC50: Human coronavirus 229E, HEL, read-out: Antiviral EC50 Human Coronavirus (229E)
[3] = system: Vesicular stomatitis virus; assay: microbe, parasite or virus in culture; type: cell-based; conditions: Vesicular stomatitis virus, HEp-2, read-out: Antiviral EC50 Vesicular stomatitis virus
Coxsackie virus B4 [4] = assay: Antiviral CPE assay, Coxsackie virus B4 in HEp-2 cells; type: cell-based; conditions: Enterovirus B, B4, HEp-2
[5] = system: Respiratory syncytial virus; assay: Antiviral CPE assay, Respiratory syncytial virus in HEp-2 cells; type: cell-based; conditions: human respiratory syncytial virus, HEp-2
[6] = Cytotoxicity in Vero cell cultures (MTS); type: cell-based, African green monkey; conditions: African green monkey, Vero cells (kidney epithelial cells), uninfected, MTS assay, read-out: Cytotoxixity CC50
Reo-virus-1 = assay: Antiviral CPE assay, Reovirus-1 in Vero cells; type: cell-based; conditions: Vero
Sindbis virus = assay: Antiviral CPE assay, Sindbis virus in Vero cells; type: cell-based; conditions: Sindbis virus, Vero
Coxsackie virus B4 [7] = assay: Antiviral CPE assay, Coxsackie virus B4 in Vero cells; type: cell-based; conditions: Enterovirus B, B4, Vero
Punta Toro virus = assay: Antiviral CPE assay, Punta Toro virus in Vero cells; type: cell-based; conditions: Punta Toro virus, Vero
Yellow Fever virus = assay: microbe, parasite or virus in culture; type: cell-based; conditions: Yellow fever virus, Vero, read-out: Antiviral EC50 Yellow Fever virus, Vero cell cultures
Zika virus = assay: Antiviral CPE assay, Zika virus in Vero cells; type: cell-based; conditions: Zika virus, Vero
[8] = system: Influenza A virus A/Ned/378/05A (H1N1); assay: Antiviral CPE assay, Influenza A (H1N1) in MDCK cells; type: cell-based; conditions: Influenza A virus, H1N1, MDCK
[9] = system: Influenza A virus A/HK/7/87 (H3N2); assay: Antiviral CPE assay, Influenza A (H3N2) in MDCK cells; type: cell-based; conditions: Influenza A virus, H3N2, MDCK
[10] = system: Influenza B virus B/Ned/537/05; assay: Antiviral CPE assay, Influenza B in MDCK cells; type: cell-based; conditions: Influenza B virus; MDCK cell cultures
[11] = system: Human immunodeficiency virus (IIIB); assay: Antiviral CPE assay, HIV-1 (IIIB) in MT-4 cells; type: cell-based, human immunodeficiency virus type 1 (HIV-1); conditions: Human immunodeficiency virus 1, IIIB, MT4
[12] = system: Human immunodeficiency virus (ROD); assay: Antiviral CPE assay, HIV-2 (ROD) in MT-4 cells; type: cell-based; conditions: Human immunodeficiency virus 2, MT4
in vitro [13] = conditions: dog
[14] = Cytotoxicity in MT-4 cell cultures (MTS); conditions: human, Cytotoxixity CC50, MT-4 cell cultures, MTS assay
[15] = Cytotoxicity in HEp-2 cell cultures (MTS); conditions: human
in vitro [16] = conditions: human

Row | Molecule | EC50 [1] | EC50 [2] | EC50 (Vaccinia virus) | EC50 (Adeno virus-2) | EC50 [3] | EC50 (Coxsackie virus B4 [4]) | EC50 [5] | CC50 [6] | EC50 (Reo-virus-1) | EC50 (Sindbis virus) | EC50 (Coxsackie virus B4 [7]) | EC50 (Punta Toro virus) | EC50 (Yellow Fever virus) | EC50 [8] | EC50 [9] | EC50 [10] | EC50 [11] [µg/mL] | EC50 [12] [µg/mL] | CC50 (in vitro [13]) | CC50 [14] [µg/mL] | further results
1 | Nc1nc2c(ncn2C2CC(O)C(CO)C3CC32)c(=O)[nH]1 (stereo not drawn) [Compound 1b, 2-Amino-9-[(1′S,2′S,4′R,5′S,6′S)-4′-hydroxy-5′-(hydroxymethyl) Bicyclo[4.1.0]hept-2′-yl]-1,9-dihydro-6H-purin-6-one] | > 50 µg/mL | > 50 µg/mL | > 50 µg/mL | > 50 µg/mL | > 50 µg/mL | > 50 µg/mL | > 50 µg/mL | > 50 µg/mL | > 50 µg/mL | > 50 µg/mL | > 50 µg/mL | > 50 µg/mL | > 50 µg/mL | > 50 µg/mL | > 50 µg/mL | > 50 µg/mL | > 125 | > 125 | > 50 µg/mL | > 125 | EC50 (Human Coronavirus (229E)): > 50 µg/mL; EC50 (Zika virus): > 50 µg/mL; CC50 [15]: > 50 µg/mL
2 | Nc1ccn(C[C@@H](CO)OCP(=O)(O)O)c(=O)n1 [Cidofovir, reference compound] | 39.3 µM | 7.5 µM | 8.7 µM | 9.9 µM | – | – | – | – | – | – | – | – | – | – | – | – | – | – | – | – | CC50 (in vitro [16]): > 250 µM
3 | NC(=O)c1cn(C2CC(O)C(CO)C3CC32)nn1 (stereo not drawn) [Compound 3a, 1-[(1′S,2′S,4′R,5′R,6′R)-4′-Hydroxy-5′-(hydroxymethyl)bicyclo[4.1.0]hept-2′-yl]-1H-1,2,3-triazole-4-carboxamide] | > 50 µg/mL | > 50 µg/mL | > 50 µg/mL | > 50 µg/mL | > 50 µg/mL | > 50 µg/mL | > 50 µg/mL | > 50 µg/mL | > 50 µg/mL | > 50 µg/mL | > 50 µg/mL | > 50 µg/mL | > 50 µg/mL | > 50 µg/mL | > 50 µg/mL | > 50 µg/mL | > 125 | > 125 | > 50 µg/mL | > 125 | EC50 (Human Coronavirus (229E)): > 50 µg/mL; EC50 (Zika virus): > 50 µg/mL; CC50 [15]: > 50 µg/mL
4 | OCC1C(O)CC(n2cc(-c3ccccc3)nn2)C2CC12 [Compound 3c, (1R,2R,3R,5S,6S)-2-(Hydroxymethyl)-5-(4″-phenyl-1H-1″,2″,3″-triazol-1-yl)bicyclo[4.1.0]heptan-3-ol] | > 50 µg/mL | > 50 µg/mL | > 50 µg/mL | > 50 µg/mL | > 50 µg/mL | > 50 µg/mL | > 50 µg/mL | > 50 µg/mL | > 50 µg/mL | > 50 µg/mL | > 50 µg/mL | > 50 µg/mL | > 50 µg/mL | > 50 µg/mL | > 50 µg/mL | > 50 µg/mL | > 96.2 | > 96.2 | 20.4 µg/mL | 96.2 (≈ 337 µM) | EC50 (Human Coronavirus (229E)): > 50 µg/mL; EC50 (Zika virus): > 50 µg/mL; CC50 [15]: > 50 µg/mL
5 | Cc1cn([C@H]2C[C@H](N=[N+]=[N-])[C@@H](CO)O2)c(=O)[nH]c1=O [Zidovudine, reference compound] | – | – | – | – | – | – | – | – | – | – | – | – | – | – | – | – | 0.002 (≈ 0.00748 µM) | 0.002 (≈ 0.00748 µM) | – | > 2 | –
6 | Nc1nc(O)c2ncn(COC(CO)CO)c2n1 [Ganciclovir, reference compound] | 0.4 µM | 0.09 µM | > 100 µM | – | – | – | – | – | – | – | – | – | – | – | – | – | – | – | – | – | CC50 (in vitro [16]): > 100 µM
7 | Nc1ccn([C@H]2CC[C@@H](CO)O2)c(=O)n1 [Zalcitabine, reference compound] | – | – | – | 12 µM | – | – | – | – | – | – | – | – | – | – | – | – | – | – | – | – | –
8 | O=c1[nH]cnc2c1ncn2[C@H]1CC[C@@H](CO)O1 [Didanosine, reference compound] | – | – | – | – | – | – | – | – | – | – | – | – | – | – | – | – | 17.9 (≈ 76 µM) | 19.4 (≈ 82.1 µM) | – | > 50 | –
9 | NC(=O)c1ncn([C@@H]2O[C@H](CO)[C@@H](O)[C@H]2O)n1 [Ribavirin, reference compound] | – | – | – | – | 149 µM | 117 µM | 6.7 µM | – | – | – | – | – | – | 7.4 µM | 6.4 µM | 9.3 µM | – | – | > 100 µM | – | CC50 [15]: > 250 µM
10 | CC(N)C12CC3CC(CC(C3)C1)C2 (centres unmarked) [Rimantadine, reference compound] | – | – | – | – | – | – | – | – | – | – | – | – | – | 88.8 µM | 0.06 µM | > 200 µM | – | – | > 200 µM | – | –
11 | CC(=O)N[C@H]1[C@H]([C@H](O)[C@H](O)CO)OC(C(=O)O)=C[C@@H]1N=C(N)N [Zanamivir, reference compound] | – | – | – | – | – | – | – | – | – | – | – | – | – | 0.9 µM | 4.9 µM | 1.4 µM | – | – | > 100 µM | – | –
12 | COc1c(C)c2c(c(O)c1C/C=C(\C)CCC(=O)O)C(=O)OC2 [Mycophenolic acid, reference compound] | – | – | – | – | – | – | – | > 100 µM | 7.1 µM | 3.6 µM | > 100 µM | > 100 µM | 2.6 µM | – | – | – | – | – | – | – | EC50 (Zika virus): 0.2 µM
13 | Cc1cn([C@H]2C[C@H](F)[C@@H](CO)O2)c(=O)[nH]c1=O [Alovudine, reference compound] | – | – | – | 0.4 µM | – | – | – | – | – | – | – | – | – | – | – | – | – | – | – | – | –
14 | Nc1nc2c(ncn2COCCO)c(=O)[nH]1 [Acyclovir, reference compound] | 1.9 µM | 0.5 µM | > 250 µM | – | – | – | – | – | – | – | – | – | – | – | – | – | – | – | – | – | CC50 (in vitro [16]): > 250 µM
15 | OCc1cn(C2CC(O)C(CO)C3CC32)nn1 [Compound 3e, (1R,2R,3R,5S,6S)-2-(Hydroxymethyl)-5-[4″-(hydroxymethyl)-1H-1″,2″,3″-triazol-1‴-yl]bicyclo[4.1.0]heptan-3-ol] | > 50 µg/mL | > 50 µg/mL | > 50 µg/mL | > 50 µg/mL | > 50 µg/mL | > 50 µg/mL | > 50 µg/mL | > 50 µg/mL | > 50 µg/mL | > 50 µg/mL | > 50 µg/mL | > 50 µg/mL | > 50 µg/mL | > 50 µg/mL | > 50 µg/mL | > 50 µg/mL | > 116 | > 116 | > 50 µg/mL | ≥ 116 | EC50 (Human Coronavirus (229E)): > 50 µg/mL; EC50 (Zika virus): > 50 µg/mL; CC50 [15]: > 50 µg/mL
16 | Cc1cn(C2CC=C(CO)C3CC32)c(=O)[nH]c1=O (stereo not drawn) [Compound 19, 1-[(1′S,2′S,6′R)-5′-(hydroxymethyl)-bicyclo[4.1.0]hept-4′-en-2′-yl]-5-methylpyrimidine-2,4(1H,3H)-dione] | > 50 µg/mL | > 50 µg/mL | > 50 µg/mL | > 50 µg/mL | > 50 µg/mL | > 50 µg/mL | > 50 µg/mL | > 50 µg/mL | > 50 µg/mL | > 50 µg/mL | > 50 µg/mL | > 50 µg/mL | > 50 µg/mL | > 50 µg/mL | > 50 µg/mL | > 50 µg/mL | > 109 | > 109 | 18.6 µg/mL | 109 (≈ 440 µM) | EC50 (Human Coronavirus (229E)): > 50 µg/mL; EC50 (Zika virus): > 50 µg/mL; CC50 [15]: > 50 µg/mL
17 | O=c1[nH]c(=O)n([C@H]2C[C@H](O)[C@@H](CO)O2)cc1/C=C/Br [Brivudin, reference compound] | 0.2 µM | 22.1 µM | 12.6 µM | – | – | – | – | – | – | – | – | – | – | – | – | – | – | – | – | – | CC50 (in vitro [16]): > 250 µM
18 | B1 | – | – | – | – | – | – | – | – | – | – | – | – | – | – | – | – | – | – | – | – | Antiviral EC50 Human Coronavirus (229E) (Human Coronavirus (229E); HEL cell cultures): 1.2 µg/mL
